The values that follow come from PMC6100056, “Antitumor Effects and Delivery Profiles of Menahydroquinone-4 Prodrugs with Ionic or Nonionic Promoiety to Hepatocellular Carcinoma Cells” (Molecules : A Journal of Synthetic Chemistry and Natural …, 2018).

Series [1] concerns SK-Hep-1 cells. Kind of series: Cell viability assay (Cell Titer-Glo). As to conditions: for IC50 lower than that of MK-4: 96 h of treatment; for IC50: Homo sapiens, 95% confidence interval in square brackets. Type of series: cell-based. As to the method: (§1) To assess the effects of MKH-ester prodrugs on HCC cell proliferation, DCP-positive (PLC/PRF/5) and DCP-negative (SK-Hep-1) HCC cell lines were treated with various concentrations of MKH-ACT, MKH-DMG, MKH-SUC or MK-4 up to 96 h, and cell viability was determined.
(§2) Cell viability was determined using a previously reported method. Briefly, PLC/PRF/5 and SK-Hep-1 cells were plated at 5.0 × 10^3 cells/well in 96-well plates and allowed to attach for 48 h. MK-4 and MKH-ACT were dissolved in 99.5% ethanol. MKH-SUC was dissolved in DMSO. MKH-DMG was dissolved in sterilized water. Stock solutions of each drug (50 mM) were diluted to the intended final concentrations with medium. Cells were exposed to MK-4, MKH-ACT, MKH-DMG or MKH-SUC for up to 96 h, and cell viability was evaluated using the Cell Titer-Glo Luminescent Cell Viability Assay (Promega, Madison, WI, USA) according to the manufacturer’s instructions. IC50 values were determined by a log [drug] vs. normalized response-variable slope analysis of GraphPad Prism, version 6.0 (GraphPad Software, San Diego, CA, USA).
In general terms: Cellular ATP, detected with luciferase, serves as a proxy for viable cell number.

The test system of series [2] is PLC/PRF/5 cells. Kind of series: Cell viability assay (Cell Titer-Glo). Type of series: cell-based. The note with it: for IC50: Homo sapiens, 95% confidence interval in square brackets; for IC50 lower than that of MK-4: 96 h of treatment. As to the method: as §1, §2
The subject of series [3] is cyclin D1 and CDK4 in PLC/PRF/5 cells. In words: Western blotting of cell cycle regulatory proteins. As to conditions: 24 h after treatment. The series is classed as cell-based. As to the method: We previously reported that MKH-DMG regulates cell cycle-related proteins as a mechanism of MKH-DMG-induced growth inhibition in PLC/PRF/5, Hep3B and SK-Hep-1 cells. Thus, to clarify the mechanisms of the growth inhibition induced by the MKH-ester prodrugs, we analyzed cell cycle-related proteins using Western blotting (Figure 7).
HCC cells were plated at 1.5 × 10^5 cells/well in 6-well plates and allowed to attach for 48 h. Cells were treated with MK-4, MKH-ACT, MKH-DMG or MKH-SUC for 24 h. Western blotting was performed as described previously.
In general terms: In western blotting, separated proteins are transferred to a membrane and probed.

The subject of series [4] is esterase. Kind of series: Regeneration (hydrolysis) of MKH-ester derivatives to MKH in S9 fractions. The series is classed as in vitro ADME. As to conditions: human, pH 7.4, 37 °C, Michaelis-Menten fit, 95% confidence interval in square brackets. As to the method: To assess the regeneration to the parental form, MKH, from the MKH-ester derivatives by an esterase of HCC, MKH-ACT, MKH-DMG and MKH-SUC were incubated at 37 °C in S9 fractions obtained from PLC/PRF/5 or SK-Hep-1 cells. The velocities of MK-4 generated in the S9 fractions were plotted as the amount of MKH, because MKH is rapidly oxidized to MK-4 during drug extraction and measurement. The regeneration versus […] profile was fitted by the Michaelis--Menten model (shown in Figure 4) and the kinetic parameters were calculated (Table 2). The regeneration velocities of MKH-ACT in both PLC/PRF/5 and SK-Hep-1 cells reached a plateau at about 3 μM MKH-ACT. MKH-DMG reached a plateau in PLC/PRF/5 and SK-Hep-1 cells at 25 μM and about 6 μM MKH-DMG, respectively. MKH-SUC reached a plateau in PLC/PRF/5 and SK-Hep-1 cells at about 0.6 μM and about 1.5 μM MKH-SUC, respectively. The level scale of MKH regeneration from MKH-SUC was about 100-fold higher than those of MKH-ACT and MKH-DMG.
The hydrolysis of the esters was performed at 37 °C in S9 fractions of PLC/PRF/5 and SK-Hep-1 cells after ultrasonic homogenization and centrifugation (10,000× g, 1 h) in isotonic phosphate buffer (pH 7.4). Stock solutions of each ester were made in the same manner as the cell viability assay, and the solutions were diluted with 0.1% w/v albumin in PBS. The enzymatic reactions were initiated by adding 5 μL of the diluted of each ester into amber test tubes containing 95 μL of preheated S9 fractions. A BCA protein assay (PIERCE/Thermo Fisher Scientific Inc., Waltham, MA, USA) was used to determine protein concentrations, and the final S9 concentration was adjusted to 1.0 mg of protein/mL in PBS. The solutions were incubated at 37 °C, and at appropriate times, the aliquots from the reaction were combined with an equal volume of methanol and three times volume of n-hexane. The samples were vortexed for 2 min and centrifuged at 1750× g for 10 min. The upper layer (n-hexane) was collected and evaporated under nitrogen. The residue was reconstituted with 100 μL of methanol, sonicated for 10 s and subjected to LC-MS/MS analysis as described below.
The LC-MS/MS analysis was performed with the same instrument under the same conditions as in an earlier report, except for the following MS/MS-multiple reaction monitoring (MRM) setting and retention times: MRM: m/z 532→171, [M + H]^+ MKH-ACT adduct; m/z 664→187, [M + NH4]^+ MKH-SUC adduct; retention times: MKH-ACT, 1.7 min; and MKH-SUC, 1.1 min.
For the determination of Km and Vmax for the uptake and enzymatic activation of MKH-esters, concentration-dependency data were fit to the Michaelis--Menten equation:V = Vmax·[S]/(Km + [S])(1) where V represents the velocity of action between the substrate and transportation/enzymatic reaction, [S] refers to the concentration of the substrate and Km is defined as the concentration of substrate at the half-maximal rate of action (Vmax). Data were analyzed by GraphPad Prism (GraphPad Software).

[5] abbreviates: S9 fraction of PLC/PRF/5 cells, S9 of PLC/PRF/5 cells.
Where [6] appears, read: S9 fraction of SK-Hep-1 cells, S9 of SK-Hep-1 cells.

Structures can show the parent of a compound that is named as a salt.

As a reminder, the IC50 is the concentration that inhibits the measured activity by half. Usually Km stands for the concentration of substrate that gives half-maximal velocity.

In the case of `CC(=O)Oc1c(C)c(C/C=C(\C)CC/C=C(\C)CC/C=C(\C)CCC=C(C)C)c(OC(C)=O)c2ccccc12` [MKH-ACT, Menahydroquinone-4 1,4-bis acetate], the “IC50 lower than that of MK-4” value in series [1] is recorded as 1.23 fold. In addition, the IC50 in series [1] (SK-HEP1, 72 h) came to 71.6 µM; in series [1] (SK-HEP1, 96 h) it was 71.9 µM; in series [2] (72 h) it was 152 µM; in series [2] (96 h) it was 114 µM. In addition, the “Effect on cyclin D1 and CDK4 expression compared with controls” value (“Effect … compared with controls” for short) in series [3] is “did not affect”. The Km in series [4] (setting [5]) worked out at 1.42 µM; in series [4] (setting [6]), 1.32 µM.
Take `CC(C)=CCC/C(C)=C/CC/C(C)=C/CC/C(C)=C/Cc1c(C)c(OC(=O)CN(C)C)c2ccccc2c1OC(=O)CN(C)C` [MKH-DMG, Menahydroquinone-4 1,4-bis-N,N-dimethylglycinate hydrochloride]: the results for the “IC50 lower than that of MK-4” value in series [1] and in series [2] were 3.61 fold and 3.17 fold, respectively. Further, the IC50 in series [1] (SK-HEP1, 48 h) worked out at 71.3 µM; in series [1] (SK-HEP1, 72 h), 32.5 µM; in series [1] (SK-HEP1, 96 h), 24.4 µM; in series [2] (48 h), 63 µM; in series [2] (72 h) it was 33.4 µM; in series [2] (96 h), 27.4 µM. Moreover, in series [3], the “Effect … compared with controls” value is “clearly suppressed”. For the same molecule, the Km is 13.6 µM in series [4] (setting [5]) and 3.24 µM in series [4] (setting [6]).
As for `CC(C)=CCC/C(C)=C/CC/C(C)=C/CC/C(C)=C/Cc1c(C)c(OC(=O)CCC(=O)O)c2ccccc2c1OC(=O)CCC(=O)O` [MKH-SUC, Menahydroquinone-4 1,4-bis hemisuccinate], the “IC50 lower than that of MK-4” value in series [1] turned out to be 12.3 fold; in series [2], 4.32 fold. In addition, the IC50 in series [1] (SK-HEP1, 48 h) was 78.1 µM; in series [1] (SK-HEP1, 72 h), 15.8 µM; in series [1] (SK-HEP1, 96 h), 7.16 µM; in series [2] (48 h), 48.9 µM; in series [2] (72 h), 26.6 µM; in series [2] (96 h), 20.1 µM. In addition, the “Effect … compared with controls” value in series [3] was “clearly suppressed”. Also, the Km in series [4] (setting [5]) came to 0.399 µM; in series [4] (setting [6]) it was 0.74 µM.
